In ChEMBL document CHEMBL1137576, “Interactions of hepatitis B core antigen and peptide inhibitors” (J Med Chem, 2007):
Where a SMILES comes first, the peptide text is derived from it.

Assays:
[1] = target: Core antigen (Hepatitis B virus) (UniProt Q03732); assay: (§1) Binding affinity to HBcAg
[2] = target: Core antigen (Hepatitis B virus, UniProt Q03732); assay: as §1
Core antigen, sequence (Q03732 whole entry): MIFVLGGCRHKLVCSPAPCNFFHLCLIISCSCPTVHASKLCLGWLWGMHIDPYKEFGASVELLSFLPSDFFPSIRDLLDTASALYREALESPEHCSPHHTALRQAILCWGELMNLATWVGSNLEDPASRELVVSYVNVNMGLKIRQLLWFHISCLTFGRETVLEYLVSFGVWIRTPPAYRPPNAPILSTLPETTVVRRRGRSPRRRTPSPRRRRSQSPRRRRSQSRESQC

Core antigen (Hepatitis B virus), sequence (Q03732 as listed by the source): as the sequence (Q03732 whole entry) above

Row | SMILES | Ka [1] | Kd [2]
1 | CSCC[C@H](NC(=O)[C@H](CCCNC(=N)N)NC(=O)CNC(=O)[C@H](CC(C)C)NC(=O)[C@H](CC(C)C)NC(=O)[C@H](CO)NC(=O)[C@H](CCCNC(=N)N)NC(=O)[C@H](Cc1cnc[nH]1)NC(=O)[C@@H](N)CCSC)C(=O)N[C@@H](CCCCN)C(=O)NCC(=O)N[C@@H](C)C(=O)O | 1.26 10^4/M | 79.4 µM
2 | CC[C@H](C)[C@H](NC(=O)[C@H](CC(N)=O)NC(=O)[C@H](CO)NC(=O)[C@H](Cc1ccccc1)NC(=O)[C@H](Cc1ccccc1)NC(=O)[C@H](CO)NC(=O)[C@@H](N)Cc1c[nH]c2ccccc12)C(=O)O (H-WSFFSNI-OH) | 5.4 10^4/M | 18.5 µM
